For 2 compounds, IC50 results are on record in ChEMBL document CHEMBL3286241, “Dammarane-type triterpenoids from Gentianella azurea” (J Nat Prod, 2014).

Molecules are shown by their SMILES. pIC50: −log10 of the molar value.

This assay has as its system RAW264.7. Briefly: Antiinflammatory activity in mouse RAW264.7 cells assessed as inhibition of LPS-induced NO production after 24 hrs by Griess assay. As to conditions: RAW264.7, 24 h. Type of assay: functional, cell-based. In general terms: Nitrite, measured by Griess reagent, commonly stands in for NO production.

For the compound `CC1(C)O[C@](C(=O)O)([C@H]2CC[C@]3(C)[C@@H]2CC[C@@H]2[C@@]4(C)CC[C@H](O[C@@H]5O[C@H](CO)[C@@H](O)[C@H](O)[C@H]5O)[C@](C)(CO)[C@@H]4CC[C@]23C)C[C@H](O)[C@@H]1O` [GENTIRIGEOSIDE A], the negative logarithm of the IC50 (pIC50) was 5.18.

For `COc1ccc2c(c1)c(CC(=O)O)c(C)n2C(=O)c1ccc(Cl)cc1` [INDOMETHACIN], the pIC50 is 5.90.

For orientation: pIC50 means the negative decadic logarithm of the IC50, by convention in mol/L.
